Experimental data taken from patent publication US20040191297A1, “Carotenoid formulation” (priority 1997, published 2004).
Where “and” joins values, the source holds several entries; their conditions need not be identical. Equal values may be shown once.

What was measured:
α-tocopherol = test: Liver vitamin E assay; format: in vivo, Fischer 344 rats
[1] = Stability of lycopene incorporated into AIN-76A diet at ambient temperature in food cup (air and light); format: physicochemical; conditions: for Concentration: ambient temperature
Procedure: At various time points, a diet sample was taken and lycopene was extracted as follows: Approximately 0.5 to 1.0 g of sample was added to a 15 ml volume of extraction solvent consisting of 40% acetonitrile, 20% hexane, 20% methanol and 20% methylenechloride. The mixture was sonicated for 2 minutes and allowed to stand for 5 minutes. The reddish-orange clear supernatant was then decanted. This process was repeated 4 times, at which time the supernatant was colorless. Solvent was then added to a volume of 25 to 100 ml, the mixture centrifuged, and the supernatant decanted. All supernatants were then mixed. The above solvent serves two purposes; first, it is the most efficient mixture for lycopene, and second, it is the same solvent used for injecting lycopene samples into the HPLC.
The second was by exposing the lycopene-containing diet to air and light, as is the case in an actual feeding study. The stability of lycopene in the food cup where it is exposed to light and air is seen in Table 9.

[2] = Fecal lycopene analysis (24 hour fecal pellets); format: in vivo, rat; conditions: for Fecal lycopene: male rat, 744 μg/g in diet
Procedure: Prior to termination, 3 animals from each group were placed in metabolic cages and 24-hour urine and fecal collections made for subsequent lycopene assay. Blood was collected by heart puncture under anesthesia for lycopene assay and all animals were sacrificed by CO2 anesthesia. Blood and feces were stored at −20° C. At necropsy, all major organ systems were grossly inspected. Any unusual appearing tissues were placed in formalin and saved for later histological examination.
(§1) Extraction of lycopene from diet was as follows: A sample of diet containing lycopene was suspended in the injection solvent (Table 4) and homogenized in a polytron homogenizer. Echinenone was added as an internal standard and the mixture centrifuged at 3000 rpm at 4° C. for 15 minutes. The supernatant was decanted and saved and the extraction repeated. The pooled extracts were then dried under N2 gas at 60° C. and the residue dissolved in 0.5 ml injection solvent and then subjected to HPLC analysis. The same method, with minor variations, was used for feces and for lung tissue. The efficiency of lycopene extraction from the diet is shown in Table 6 A&B. At any concentration tested the efficiency ranged from 75% at the highest concentration to 100% for the lowest concentration of lycopene.
The possibility that some lycopene decomposed upon storage prior to extraction must also be considered. […] This, no doubt, is due to the presence of water in the fecal pellet and to the geometry of the pellet. Once freeze-dried, the fecal pellet can easily be powdered, permitting easier access of the solvent to the fecal matrix.

retinol = test: Liver vitamin A assay; format: in vivo, Fischer 344 rats; conditions: for Liver retinol: female
Excerpt: The effect of the tomato carotenoid supplement on the absorption and storage of two important fat soluble vitamins, namely, retinol and α-tocopherol, was investigated. Using established HPLC methods, a strong liner dose-response relationship was found between the lycopene content of the liver and both retinol and a-tocopherol concentration in female R-344 rats (Table 23).

glutathione = test: Total glutathione assays of blood, liver and kidney; format: in vivo, Fischer 344 rats
Excerpt: The rationale for measuring glutathione is that the reduced form of the tripeptide thiol, glutathione (Glu-Cys-Gly), participates directly in several key intracellular reactions, including protection against free radical damage. In contrast to carotenoids, which reside in the lipid phase, glutathione is found in the aqueous phase of the cell and there is evidence that lipid and aqueous phase anti-oxidants may interact with one another in such a manner that high levels of one may “spare” or limit the deletion of the other. Total (reduced and oxidized) glutathione assays of blood, liver and kidney (Tables 20-22) were conducted.
The determination of glutathione was by HPLC with dual electrochemical detection (see Kleinman, W. A. & Richie, J. P., J. Chromatogr B 672:73-80, 1995). only 1 case, at the highest lycopene level, was there a significant increase in glutathione levels and this occurred only in the liver.

[3] = Concentration of lycopene in rat lung; format: in vivo, Fischer 344 rats
Procedure: as §1
homogenized. […] This hexane extraction procedure was repeated 5-7 times.

[4] = lyophilization + organic extraction
[5] = female rat, Group 1, 1280 in diet
[6] = female rat, Group 2, 512 in diet
[7] = female rat, Group 3, 256 in diet
[8] = female rat, Group 4, 128 in diet
[9] = female rat, Group 5, 51 in diet
[10] = male rat, Group 1, 1280 in diet

SMILES: CC(C)=CCC/C(C)=C/C=C/C(C)=C/C=C/C(C)=C/C=C/C=C(C)/C=C/C=C(C)/C=C/C=C(\C)CCC=C(C)C [Lycopene]
- Liver α-tocopherol (α-tocopherol; female, Group 2, lycopene 512 mg/kg diet): 38 μg/gm
- Liver α-tocopherol (α-tocopherol; male, Group 7, lycopene 1280 mg/kg diet): 28 μg/gm
- Liver α-tocopherol (α-tocopherol; male, Group 8, lycopene 512 mg/kg diet): 8 μg/gm
- Liver α-tocopherol (α-tocopherol; male, Group 9, lycopene 256 mg/kg diet): 23 μg/gm
- Liver α-tocopherol (α-tocopherol; male, Group 11, lycopene 51 mg/kg diet): 14 μg/gm
- stability in the diet ([1]; 7 days at ambient light and temperature): stable
- Concentration ([1]; AIN-76A diet, 0 days in food cup): 744 µg/g
- Concentration ([1]; 2 days in food cup): 702 µg/g
- Concentration ([1]; 3 days in food cup): 616 µg/g
- Concentration ([1]; 6 days in food cup): 547 µg/g
- Concentration ([1]; 7 days in food cup): 439 µg/g
- Concentration ([1]; 9 days in food cup): 624 µg/g
- Concentration ([1]; 10 days in food cup): 576 µg/g
- Concentration ([1]; 13 days in food cup): 449 µg/g
- Concentration ([1]; 14 days in food cup): 419 µg/g
- Concentration ([1]; 15 days in food cup): 425 µg/g
- Concentration ([1]; 17 days in food cup): 431 µg/g
- Concentration ([1]; 20 days in food cup): 385 µg/g
- Concentration ([1]; 21 days in food cup): 376 µg/g
- original lycopene no longer measurable ([1]; food cup, air and light, 3 weeks): one-half
- lycopene lost ([1]; food cup, air and light, 48-hour period): a small amount is lost
- total lycopene lost ([1]; food cup, air and light, 72 hours): approximately 20%
- 24 hr fecal lycopene [2, 4]: 5,406 μg
- Fecal lycopene [2, 4]: 3,754 μg/g
- Fecal lycopene ([2]; organic extraction): 2,992 μg/g
- 24 hr fecal lycopene ([2]; organic extraction): 4,309 μg
- % Efficiency (fecal output/input) ([2]; organic extraction): 44%
- difference in liver retinol between controls and the highest lycopene dose (retinol; female rats): 10 fold
- Liver retinol (retinol; Group 1, lycopene 1280 mg/kg diet): 1302 μg/gm
- Liver retinol (retinol; Group 2, lycopene 512 mg/kg diet): 768 μg/gm
- Liver retinol (retinol; Group 3, lycopene 256 mg/kg diet): 858 μg/gm
- Liver retinol (retinol; Group 4, lycopene 128 mg/kg diet): 888 μg/gm
- Liver retinol (retinol; Group 5, lycopene 51 mg/kg diet): 555 μg/gm
- Kidney glutathione (glutathione; female, lycopene 51 ppm): 0.900 ± 0.101^ μmol/g
- Liver glutathione (glutathione; female, lycopene 51 ppm): 6.01 ± 0.309 µmol/g
- Whole blood glutathione (glutathione; female, lycopene 51 ppm): 0.832 ± 0.158^+ μmol/g
- Kidney glutathione (glutathione; female, lycopene 128 ppm): 0.950 ± 0.0758^ μmol/g
- Liver glutathione (glutathione; female, lycopene 128 ppm): 6.54 ± 1.09^+ μmol/g
- Whole blood glutathione (glutathione; female, lycopene 128 ppm): 0.890 ± 0.202 µmol/g
- Kidney glutathione (glutathione; female, lycopene 256 ppm): 1.030 ± 0.414^+ μmol/g
- Liver glutathione (glutathione; female, lycopene 256 ppm): 4.87 ± 1.14 µmol/g
- Whole blood glutathione (glutathione; female, lycopene 256 ppm): 0.848 ± 0.0988 µmol/g
- Kidney glutathione (glutathione; female, lycopene 512 ppm): 1.090 ± 0.163^+ μmol/g
- Liver glutathione (glutathione; female, lycopene 512 ppm): 5.88 ± 0.492 µmol/g
- Whole blood glutathione (glutathione; female, lycopene 512 ppm): 0.930 ± 0.123 µmol/g
- Kidney glutathione (glutathione; female, lycopene 1280 ppm): 0.089 ± 0.045^+ μmol/g
- Liver glutathione (glutathione; female, lycopene 1280 ppm): 7.38 ± 0.705^+ μmol/g
- Whole blood glutathione (glutathione; female, lycopene 1280 ppm): 1.080 ± 0.104 µmol/g
- dose-related changes in glutathione (glutathione; liver, kidney or whole blood): No dose-related changes
- Kidney glutathione (glutathione; male, lycopene 51 ppm): 0.688 ± 0.316 µmol/g
- Liver glutathione (glutathione; male, lycopene 51 ppm): 6.77 ± 1.53 µmol/g
- Whole blood glutathione (glutathione; male, lycopene 51 ppm): 1.030 ± 0.0387 µmol/g
- Kidney glutathione (glutathione; male, lycopene 128 ppm): 0.686 ± 0.170 µmol/g
- Liver glutathione (glutathione; male, lycopene 128 ppm): 5.38 ± 0.363 µmol/g
- Whole blood glutathione (glutathione; male, lycopene 128 ppm): 0.920 ± 0.169 µmol/g
- Kidney glutathione (glutathione; male, lycopene 256 ppm): 0.624 ± 0.104 µmol/g
- Liver glutathione (glutathione; male, lycopene 256 ppm): 4.59 ± 1.37 µmol/g
- Whole blood glutathione (glutathione; male, lycopene 256 ppm): 0.910 ± 0.106 µmol/g
- Kidney glutathione (glutathione; male, lycopene 512 ppm): 0.854 ± 0.055^+ μmol/g
- Whole blood glutathione (glutathione; male, lycopene 512 ppm): 0.990 ± 0.141 µmol/g
- Kidney glutathione (glutathione; male, lycopene 1280 ppm): 0.828 ± 0.128^+ μmol/g
- Liver glutathione (glutathione; male, lycopene 1280 ppm): 7.16 ± 1.95^+ μmol/g
- Whole blood glutathione (glutathione; male, lycopene 1280 ppm): 0.948 ± 0.294 µmol/g
- Concentration of lycopene in lung, average [3, 5]: 227 ngs/gm
- Concentration of lycopene in lung, individual [3, 5]: 184 ngs/gm and 270 ngs/gm
- Concentration of lycopene in lung, average [3, 6]: 246 ngs/gm
- Concentration of lycopene in lung, individual [3, 6]: 211 ngs/gm and 280 ngs/gm
- Concentration of lycopene in lung, average [3, 7]: 193 ngs/gm
- Concentration of lycopene in lung, individual [3, 7]: 243 ngs/gm and 142 ngs/gm
- Concentration of lycopene in lung, average [3, 8]: 211 ngs/gm
- Concentration of lycopene in lung, individual [3, 8]: 208 ngs/gm and 214 ngs/gm
- Concentration of lycopene in lung, average [3, 9]: 134 ngs/gm
- Concentration of lycopene in lung, individual [3, 9]: 144 ngs/gm and 124 ngs/gm
- Concentration of lycopene in lung, average [3, 10]: 190 ngs/g
- Concentration of lycopene in lung, individual [3, 10]: 193 ngs/g and 187 ngs/g
- Concentration of lycopene in lung, average ([3]; male rat, Group 2, 512 in diet): 214 ngs/g
- Concentration of lycopene in lung, individual ([3]; male rat, Group 2, 512 in diet): 170 ngs/g and 257 ngs/g
- Concentration of lycopene in lung, average ([3]; male rat, Group 3, 256 in diet): 375 ngs/g
- Concentration of lycopene in lung, individual ([3]; male rat, Group 3, 256 in diet): 325 ngs/g and 424 ngs/g
- Concentration of lycopene in lung, average ([3]; male rat, Group 4, 128 in diet): 201 ngs/g
- Concentration of lycopene in lung, individual ([3]; male rat, Group 4, 128 in diet): 239 ngs/g and 162 ngs/g
- Concentration of lycopene in lung, average ([3]; male rat, Group 5, 51 in diet): 151 ngs/g
- Concentration of lycopene in lung, individual ([3]; male rat, Group 5, 51 in diet): 167 ngs/g and 135 ngs/g
